# Read-outs that look alike come from different tables or passages of the source. No end group written: not given here.
# Assays:
# [1] = system: pOTC import into mitochondria isolated from striatal cells; assay: pOTC import assay with mitochondria from striatal cells plus uncoupler; type: biochemical; conditions: added to mitochondria before starting the import reaction
# Method: The assay was performed as previously described (52,53).
# [2] = system: mitochondrial protein import in primary cortical neurons; conditions: 10 μM, 2 h
# Method: Neurons obtained from each embryo were cultured separately on poly-1-lysine-coated plates and subjected to in vitro pOTC import assay on DIV 7-8.
# Pre-ornithine transcarbamylase (pOTC) cDNA in pGEM-3Zf(+)-pOTC plasmid, which was kindly provided by M. Yano (Kumamoto University, Kumamoto, Japan), was transcribed and translated in vitro using the TNT-coupled reticulocyte lysate system (Promega) in the presence of 1-[^35S]methionine (PerkinElmer). Following translation, [35 S]methionine-labeled pOTC was incubated with isolated mitochondria at 25° C. for the indicated times, and mitochondria containing imported OTC were collected by centrifugation (9,000 g, 10 min) and subjected to SDS-PAGE. The radioactive polypeptides on the gel were visualized by fluorography with Amplify (GE Healthcare) followed by exposure to X-ray film. Cleaved mature OTC (mOTC), which represents the completion of import into the mitochondrial matrix and migrates faster than pOTC on SDS-PAGE, was quantified by ImageJ (NIH). The data are presented as the percentage of mOTC compared to input (total [^35S]pOTC amount added to each reaction) and scaled to imported mOTC in control mitochondria after the maximum reaction time (set equal to 1) unless otherwise specified. […]
# [3] = system: WT primary cortical neurons; conditions: 10 μM
# Method: Primary cortical neurons were prepared from R6/2 and WT littermate embryos at E15.5. Neurons prepared from each embryo were plated into separate dishes. […] Primary cortical neurons were incubated with the indicated concentrations of H2O2 for 1 day, and neuronal death was analyzed by lactate dehydrogenase (LDH) assay (11c). Data (11b, 11c) are presented as mean+s.e.m.
# [4] = system: primary cortical and striatal neurons; assay: cell death assay by nuclear morphology in Tom40 RNAi-transfected primary neurons; type: cell-based, mouse; conditions: 20 μM
# Method: Mouse primary cortical and striatal neurons from embryonic day (E) 15.5 Swiss Webster mouse fetuses were cultured in plating medium (minimal essential medium (MEM), 10% FBS, 0.45% glucose, 1 mM sodium pyruvate, 2 mM glutamine and penicillin/streptomycin) for 3 h and then maintained in serum-free Neurobasal medium containing B27 supplement (Life Technologies), 0.5 mM glutamine and 25 μM glutamate for the first 3 d in a humidified incubator (37° C. in 5% CO2). Half of the medium was replaced with Neurobasal medium with B27 and 0.5 mM glutamine every 3 d. […] Viral copy number was adjusted for transduction of neurons on the basis of titer measured using the Lenti-X qRT-PCR titration kit (Clontech). […]
# Primary neurons infected with Tim23 shRNA or control luciferase shRNA lentivirus at DIV 5 were fixed 7 d after infection. Nuclei were stained with Hoechst 33342, and neurons were assessed in a blinded fashion for cell death by scoring condensed or fragmented nuclei. Primary neurons plated in a 24-well plate were transfected with Tom40 shRNA or control pBSU6 plasmid along with β-gal expression plasmid at DIV 5, fixed 3 d after transfection and subjected to indirect immunofluorescence with anti-β-gal antibody and nuclear DAPI staining. β-gal-positive neurons were assessed for cell death as described above. […]
# [5] = system: TIM23 complex (Tim17a, Tim23 and Tim50); assay: GST pull-down with mitochondria isolated from ST14A striatal cells and mouse brain; type: binding, rat
# Method: Extracts were spun at 14,000 r.p.m. at 4° C., and clarified supernatants were incubated with glutathione 4B Sepharose beads (GE Healthcare) at 4° C. overnight. The glutathione beads were then washed extensively with ice-cold TNE buffer, and bound proteins were subjected to SDS-PAGE followed by immunoblotting analysis. For the samples subjected to mass spectrometry, glutathione bead-bound proteins from equal amounts (600 μg) of mitochondria were further washed with high stringency RIPA buffer following TNE buffer wash to decrease nonspecific interaction. Proteins were then eluted from the glutathione beads in SDS sample buffer, separated by SDS-PAGE and stained with Coomassie. Proteins in the gel were digested with trypsin and analyzed by mass spectrometry (LC-MS/MS) at the Taplin Biological Mass Spectrometry Facility (Harvard Medical School, Boston, Mass.).
# We therefore performed GST pull-down assays using purified GST-Httex1-97Q, GST-Httex1-97Q-ΔN17, which lacks the N17 sequence, and GST-N17 with mitochondria isolated from ST14A striatal cells and mouse brain.
# Tim23 = target: T1, Tim23 (Mus musculus, UniProt Q9WTQ8); assay: GST pull down assay with purified Tim proteins; type: binding
# T1 construct: GST (N, cleaved yes); made in house; host or cells: E. coli BL21star (DE3)
# T1 sequence (Q9WTQ8 1-209): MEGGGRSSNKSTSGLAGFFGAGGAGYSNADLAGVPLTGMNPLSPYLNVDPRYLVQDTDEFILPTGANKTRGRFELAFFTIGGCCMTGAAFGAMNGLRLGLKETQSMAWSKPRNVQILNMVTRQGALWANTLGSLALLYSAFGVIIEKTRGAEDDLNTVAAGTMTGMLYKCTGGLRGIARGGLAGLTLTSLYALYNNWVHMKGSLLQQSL
# Method: Mouse Timm23, Timm50, Timm17A, and Timm17B cDNA were subcloned into the GST-Httex1 vector and transformed into BL21star (DE3) cells (Life Technologies). GST-Tim23, GST-Tim50, GST-Tim17A, and GST-Tim17B fusion proteins were purified from the cells by using glutathione 4B Sepharose beads (GE Healthcare) to bind the fusion proteins. To purify Tim proteins from GST, the GST fusion protein-bead complexes were digested with thrombin protease (GE Healthcare) at 25° C. overnight, and eluted with PBS. The eluted proteins were concentrated in PBS using AmiconUltra-10K centrifugal filters (Millipore).
# GST-Htt exon 1 proteins and GST removed Tim proteins were incubated with glutathione 4B Sepharose beads (GE Healthcare) at 4° C. overnight. The glutathione beads were then washed extensively with ice-cold PBS, and bound proteins were subjected to SDS-PAGE followed by immunoblotting analysis.
compound,measurement,setting,value
"O=[N+]([O-])c1ccc(O)c([N+](=O)[O-])c1 [2,4-dinitrophenol]",effect on pOTC import,[1],blocks import
OO [hydrogen peroxide],effect on mitochondrial protein import vs vehicle,[2]; R6/2 neurons,significantly decreased import
same,effect on mitochondrial protein import vs vehicle,[2]; WT neurons,little to no effect
same,effect on survival,[3],does not affect
CC(C)[C@H](NC(=O)c1ccc2ccccc2n1)C(=O)N[C@@H](CC(=O)O)C(=O)COc1c(F)cccc1F [qVD-OPh],effect on Tom40 RNAi-induced neuronal death,[4],partially but significantly inhibited
"GST-N17: GST tagged N terminal 17 amino acids of Huntingtin protein (MATLEKLMKAFESLKSF; also: GST tagged, side not given here)","interaction with Tim17a, Tim23 and Tim50 in pull-down",[5],"little, if any, interaction"
same,binding to Tim23 in pull down,Tim23,did not bind
